The values below come from paper PMC11033359 (Frontiers in Pharmacology, 2024).

For series [1], the system named is HLMs (human liver microsomes). The series can be described thus: Inhibition of tofacitinib metabolism (M8 formation) in HLMs. Conditions: for Inhibition type / Ki: substrate tofacitinib; for IC50: substrate tofacitinib at about Km, 30 min, 37°C. In kind it is in vitro ADME. On the procedure: (§1) All except NADPH were mixed on ice.
(§2) Statistical analysis was conducted using Student's t-test.

Series [2] has as its target recombinant human CYP3A4 (rCYP3A4) (Homo sapiens, UniProt P08684). The series can be described thus: Inhibition of tofacitinib metabolism (M8 formation) by rCYP3A4. The method, then: as §1, §2
The subject of series [3] is RLMs (rat liver microsomes). Kind of series: Inhibition of tofacitinib metabolism (M8 formation) in RLMs by furanocoumarins. In kind it is in vitro ADME. Conditions: for inhibitory effectiveness on RLMs (screening, M8 content): 100 μM furanocoumarin, 0.3 mg/mL RLMs; for IC50: substrate tofacitinib at about Km, 30 min, 37°C. The method, then:
as §1, §2

The nature of the next series: in vivo. Further details: species or system Sprague Dawley rats. Conditions: male, Sprague-Dawley, rat, po, 10 mg/kg. On the procedure: Male Sprague Dawley (SD) rats (average weighing 220–250) g were purchased from the laboratory animal center of Wenzhou Medical University, Zhejiang Province, China. Animals were maintained in a controlled environment with a 12 h light-dark cycle at 20°C–25°C and 55% ± 15% relative humidity. Diet intake was not allowed for a period of 12 h prior to the experiment. Then, water was allowed to be free and food was provided after the experiment. All the experimental procedures and protocols were reviewed and approved by the animal ethics committee of Wenzhou Medical University according to the guide for the care and use of laboratory animals (xmsq2021-0409). 36 male rats aged 8–10 weeks were randomly selected and divided into six groups for gavage. […] Blood (300 μL) was collected from the tail veins into 1.5 mL tubes at 5, 15, and 30 min and 1, 2, 3, 4, 6, 8, 12, and 24 h after administering the drugs. The supernatant was collected and stored at −20°C after centrifugation at 4000 rpm for 10 min. The samples were restored to RT before analysis. 50 μL sample was accurately drawn to 1.5 mL of EP tube, 150 μL of midazolam internal standard solution (200 ng/mL) was added to the tube, then placed and vortexed for 15 s. After centrifugation at 13, 000 rpm for 15 min, 150 µL of supernatant was prepared for the UPLC-MS/MS system to analyze.
as §2

The subject of series [4] is RLMs (rat liver microsomes). Kind of series: Michaelis-Menten kinetics of tofacitinib metabolism (M8 formation) in RLMs. Conditions: tofacitinib metabolism to M8, no inhibitor, n = 3. In kind it is in vitro ADME. On the procedure:
as §1, §2

In series [5] the test system is HLMs (human liver microsomes). Kind of series: Michaelis-Menten kinetics of tofacitinib metabolism (M8 formation) in HLMs. In kind it is in vitro ADME. Conditions: tofacitinib metabolism to M8, no inhibitor, n = 3. On the procedure:
as §1, §2

Entries after “also recorded” stand apart in the source; their conditions may differ. Like-named read-outs stand apart in the source and are kept apart here.

recombinant human CYP3A4 (rCYP3A4), sequence (P08684 whole entry): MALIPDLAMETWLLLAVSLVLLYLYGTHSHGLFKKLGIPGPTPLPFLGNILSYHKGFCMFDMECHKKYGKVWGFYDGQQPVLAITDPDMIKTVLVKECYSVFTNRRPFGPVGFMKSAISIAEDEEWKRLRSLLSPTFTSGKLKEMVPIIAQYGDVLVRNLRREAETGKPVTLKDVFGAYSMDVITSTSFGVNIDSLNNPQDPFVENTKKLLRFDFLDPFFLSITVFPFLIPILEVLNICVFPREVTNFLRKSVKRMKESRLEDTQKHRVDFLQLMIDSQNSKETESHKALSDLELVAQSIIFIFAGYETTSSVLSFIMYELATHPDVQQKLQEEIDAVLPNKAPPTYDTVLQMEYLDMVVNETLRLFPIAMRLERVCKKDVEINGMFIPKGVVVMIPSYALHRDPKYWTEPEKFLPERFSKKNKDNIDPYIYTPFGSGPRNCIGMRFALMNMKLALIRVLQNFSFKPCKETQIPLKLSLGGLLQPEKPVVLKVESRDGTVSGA

As to `COc1c2ccoc2cc2oc(=O)ccc12` [Bergapten, 5-methoxy-psoralen], the Inhibition type result is “Competitive inhibition” in series [1]; “competitively inhibited” in series [1] (listed as bergapten); “Competitive inhibition” in series [2] (rCYP3A4, substrate tofacitinib); “competitively inhibited” in series [2] (rCYP3A4, substrate tofacitinib, listed as bergapten); “Competitive inhibition” in series [3] (RLMs, substrate tofacitinib); “competitively inhibited” in series [3] (RLMs, substrate tofacitinib, listed as bergapten). Also, the Ki came out at 189 nM in series [1]; 1220 nM in series [2]; 443 nM in series [3] (RLMs, substrate tofacitinib). Further, the IC50 is 2650 nM in series [1], 1420 nM in series [2] and 2620 nM in series [3] (RLMs). The “inhibitory effectiveness on RLMs (screening, M8 content)” value in series [3] is listed as “potent inhibitory activity”.

`O=c1ccc2ccc3occc3c2o1` [Isopsoralen]: the Inhibition type entry in series [1] is “competitive suppression; also recorded: Competitive inhibition”; in series [2] (rCYP3A4, substrate tofacitinib) it was “competitive suppression; also recorded: Competitive inhibition”; in series [3] (RLMs, substrate tofacitinib), “competitive suppression; also recorded: Competitive inhibition”. Also, the Ki stood at 1770 nM in series [1] and 15400 nM in series [2] (Ki, rCYP3A4, substrate tofacitinib). In addition, the IC50 in series [1] is 12300 nM; in series [2] (IC50, rCYP3A4, substrate tofacitinib at about Km, 30 min, 37°C), 17100 nM; in series [3] (RLMs), 19300 nM. Further, the “risk of DDI with tofacitinib (from Ki)” value in series [2] is on record as “medium”. The “inhibitory effectiveness on RLMs (screening, M8 content)” value in series [3] is “potent inhibitory activity”.

Turning to `C[C@@H]1CCN(C(=O)CC#N)C[C@@H]1N(C)c1ncnc2[nH]ccc12` [tofacitinib, Tofacitinib], the Km in series [1] (bergapten 0 μM) was 47.8 µM; in series [1] (bergapten 0.5 μM), 53.1 µM; in series [1] (bergapten 1 μM) it was 76.7 µM; in series [1] (bergapten 2 μM) it was 190 µM; in series [1] (bergapten 4 μM), roughly 5860 µM; in series [1] (isopsoralen 0 μM) it was 61.7 µM. In addition, the Km in series [1] (isopsoralen 5 μM) amounted to 71.1 µM; in series [1] (isopsoralen 10 μM), 134 µM; in series [1] (isopsoralen 20 μM), 432 µM; in series [1] (isopsoralen 40 μM) it was 930 µM; in series [4], 76.2 ± 4.51 µM; in series [3] (RLMs, bergapten 0 μM) it was 65.5 µM. Also, the Km in series [3] (RLMs, bergapten 0.5 μM) worked out at 72.3 µM; in series [3] (RLMs, bergapten 1 μM) it was 88.6 µM; in series [3] (RLMs, bergapten 2 μM), 160 µM; in series [3] (RLMs, bergapten 4 μM), 411 µM; in series [3] (RLMs, isopsoralen 0 μM), 77.7 µM; in series [3] (RLMs, isopsoralen 5 μM), 114 µM. The Km in series [3] (RLMs, isopsoralen 10 μM) is 259 µM; in series [3] (RLMs, isopsoralen 20 μM) it was 538 µM; in series [3] (RLMs, isopsoralen 40 μM) it was 410 µM; in series [5] it was 65.8 ± 4.75 µM. The Vmax in series [1] (bergapten 0 μM) is on record as 2.973 M8 area ratio; in series [1] (bergapten 0.5 μM), 2.960 M8 area ratio; in series [1] (bergapten 1 μM), 3.018 M8 area ratio; in series [1] (bergapten 2 μM), 4.088 M8 area ratio; in series [1] (bergapten 4 μM), “∼43.85 M8 area ratio”; in series [1] (isopsoralen 0 μM), 1.886 M8 area ratio. The Vmax in series [1] (isopsoralen 5 μM) was determined as 1.938 M8 area ratio; in series [1] (isopsoralen 10 μM), 1.718 M8 area ratio; in series [1] (isopsoralen 20 μM), 2.148 M8 area ratio; in series [1] (isopsoralen 40 μM), 2.589 M8 area ratio; in series [4], 7.259 ± 0.1879 M8 area ratio; in series [3] (RLMs, bergapten 0 μM), 8.021 M8 area ratio. The Vmax in series [3] (RLMs, bergapten 0.5 μM) is recorded as 8.054 M8 area ratio; in series [3] (RLMs, bergapten 1 μM) it was 8.111 M8 area ratio; in series [3] (RLMs, bergapten 2 μM) it was 8.689 M8 area ratio; in series [3] (RLMs, bergapten 4 μM), 9.555 M8 area ratio; in series [3] (RLMs, isopsoralen 0 μM), 5.190 M8 area ratio; in series [3] (RLMs, isopsoralen 5 μM), 5.555 M8 area ratio. Further, the Vmax in series [3] (RLMs, isopsoralen 10 μM) is listed as 5.529 M8 area ratio; in series [3] (RLMs, isopsoralen 20 μM), 4.503 M8 area ratio; in series [3] (RLMs, isopsoralen 40 μM), 2.664 M8 area ratio; in series [5], 2.802 ± 0.0842 M8 area ratio. The same compound registered a CLz/F in the series “in vivo” of 144 ± 39.3 mL/min/kg. For the same compound, in “in vivo”, the t1/2z worked out at 1.73 ± 0.44 h. For the same compound, the MRT last in “in vivo” (MRT(0-t)) was 2.1 ± 0.27 h. Further, the MRT inf in the series “in vivo” (MRT(0-∞)) was 2.19 ± 0.28 h.

Broadly, the Ki is a measure of affinity in units of concentration, obtained from inhibition or displacement. As usually defined, the IC50 is the point on the concentration scale where inhibition reaches its midpoint. Usually Km stands for the concentration of substrate that gives half-maximal velocity. As a reminder, the MRT last is a mean duration of stay, worked out from the concentration-time curve. A word on the MRT inf: it is the average time that molecules of a dose stay in the body.
